# Assay results taken from ChEMBL document CHEMBL2413017, “Identification of novel HDAC inhibitors through cell based screening and their evaluation as potential anticancer agents” (Bioorg Med Chem Lett, 2013).
# The source made the active and inactive calls. No cut-off for these calls is given here.
# Key:
# [1] = test system: SK-OV-3; assay: Cytotoxicity against human SKOV3 cells; type: functional, cell-based
# [2] = Cytotoxicity against human MiaPaCa cells; type: functional, cell-based; settings: MIA PaCa-2
# [3] = Cytotoxicity against human Hep3B cells; type: functional, cell-based, Hep 3B2
# [4] = biological target: T1, Protein deacetylase HDAC6 (Homo sapiens, UniProt Q9UBN7); assay: Inhibition of HDAC6 (unknown origin)
# T1 sequence (Q9UBN7 whole entry): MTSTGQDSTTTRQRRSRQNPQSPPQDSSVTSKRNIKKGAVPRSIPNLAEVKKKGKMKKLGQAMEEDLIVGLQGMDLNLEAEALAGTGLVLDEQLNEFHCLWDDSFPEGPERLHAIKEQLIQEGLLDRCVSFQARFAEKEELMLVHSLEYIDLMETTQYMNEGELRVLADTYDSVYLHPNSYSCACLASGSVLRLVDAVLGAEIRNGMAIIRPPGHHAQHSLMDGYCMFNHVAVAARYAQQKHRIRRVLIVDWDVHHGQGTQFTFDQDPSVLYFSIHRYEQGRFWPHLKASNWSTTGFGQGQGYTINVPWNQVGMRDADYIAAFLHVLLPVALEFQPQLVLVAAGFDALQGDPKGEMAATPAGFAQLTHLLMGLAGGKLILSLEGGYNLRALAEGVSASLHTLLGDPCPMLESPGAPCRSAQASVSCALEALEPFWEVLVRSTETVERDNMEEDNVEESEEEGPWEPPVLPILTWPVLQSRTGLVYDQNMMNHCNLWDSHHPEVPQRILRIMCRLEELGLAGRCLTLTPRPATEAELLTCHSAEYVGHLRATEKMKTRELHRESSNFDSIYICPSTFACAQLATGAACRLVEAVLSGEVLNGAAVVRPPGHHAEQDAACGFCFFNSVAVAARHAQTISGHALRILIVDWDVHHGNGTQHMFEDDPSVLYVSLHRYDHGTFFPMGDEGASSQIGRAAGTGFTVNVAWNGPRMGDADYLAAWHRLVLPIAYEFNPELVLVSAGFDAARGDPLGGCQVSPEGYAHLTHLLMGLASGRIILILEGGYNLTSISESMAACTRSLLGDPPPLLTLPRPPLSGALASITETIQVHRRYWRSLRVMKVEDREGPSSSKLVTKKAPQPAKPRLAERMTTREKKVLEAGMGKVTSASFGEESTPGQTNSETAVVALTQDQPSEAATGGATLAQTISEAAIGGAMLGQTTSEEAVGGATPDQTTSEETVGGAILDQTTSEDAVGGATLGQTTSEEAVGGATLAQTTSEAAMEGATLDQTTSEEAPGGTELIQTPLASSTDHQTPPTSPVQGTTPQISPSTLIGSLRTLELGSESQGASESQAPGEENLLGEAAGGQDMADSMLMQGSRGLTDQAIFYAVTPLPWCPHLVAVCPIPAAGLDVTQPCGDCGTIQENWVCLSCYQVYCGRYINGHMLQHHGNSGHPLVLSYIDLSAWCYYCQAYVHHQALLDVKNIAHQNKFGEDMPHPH
# [5] = test system: A2780; assay: Cytotoxicity against human A2780 cells; type: functional, cell-based
# [6] = test system: NCI-H295R; assay: Cytotoxicity against human NCI-H295R cells; type: functional, cell-based
# [7] = biological target: Histone deacetylase 3 (Homo sapiens, UniProt O15379); assay: Inhibition of HDAC3 (unknown origin)
# [8] = Cytotoxicity against human A2780C/P cells; type: functional, cell-based
# [9] = test system: Mus musculus; assay: Toxicity in human MiaPaCa2 cells xenografted Ncr mouse at 50 to 100 mg/kg, po administered daily for 22 days; type: organism-based; parameters: dose 50-100 mg/kg, route oral; settings: in vivo, 528 h
# [10] = test system: MIA PaCa-2; assay: Antitumor activity against human MIAPaCa2 cells xenografted in Ncr mouse assessed as tumor growth inhibition at 100 mg/kg, po administered daily for 22 days measured on day 22 relative to vehicle-treated control; type: functional; settings: MIA PaCa-2, 528 h, read-out: TGI
# [11] = Cytotoxicity against human VCaP cells; type: functional, cell-based
# [12] = biological target: T2, Polyamine deacetylase HDAC10 (Homo sapiens, UniProt Q969S8); assay: Inhibition of HDAC10 (unknown origin)
# T2 sequence (Q969S8 whole entry): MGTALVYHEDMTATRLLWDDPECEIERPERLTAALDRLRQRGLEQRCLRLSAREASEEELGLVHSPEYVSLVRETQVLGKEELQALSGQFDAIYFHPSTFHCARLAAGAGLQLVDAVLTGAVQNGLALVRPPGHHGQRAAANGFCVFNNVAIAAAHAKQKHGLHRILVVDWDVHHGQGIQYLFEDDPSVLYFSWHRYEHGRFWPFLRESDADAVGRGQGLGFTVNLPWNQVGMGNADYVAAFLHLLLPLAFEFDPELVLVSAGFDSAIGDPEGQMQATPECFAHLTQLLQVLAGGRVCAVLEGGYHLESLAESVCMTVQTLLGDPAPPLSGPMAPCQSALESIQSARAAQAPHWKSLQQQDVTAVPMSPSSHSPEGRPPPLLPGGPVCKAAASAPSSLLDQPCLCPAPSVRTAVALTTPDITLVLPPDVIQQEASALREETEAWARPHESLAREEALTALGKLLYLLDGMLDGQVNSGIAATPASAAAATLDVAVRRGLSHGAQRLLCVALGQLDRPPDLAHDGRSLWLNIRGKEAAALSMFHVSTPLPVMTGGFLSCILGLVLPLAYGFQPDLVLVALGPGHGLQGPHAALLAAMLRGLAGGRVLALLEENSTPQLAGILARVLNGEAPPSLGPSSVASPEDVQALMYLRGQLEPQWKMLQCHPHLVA
# [13] = biological target: Histone deacetylase 4 (Homo sapiens, UniProt P56524); assay: Inhibition of HDAC4 (unknown origin)
# [14] = Cytotoxicity against human MV522 cells; type: functional, cell-based
# [15] = test system: NCI-H69; assay: Cytotoxicity against […] expressing human H69 cells; type: functional, cell-based
# [16] = Cytotoxicity against human SNU880 cells; type: functional, cell-based
# [17] = test system: MDA-MB-231; assay: Cytotoxicity against human MDA-MB-231 cells; type: functional, cell-based
# [18] = Cytotoxicity against human H23 cells; type: functional, cell-based; settings: NCI-H23
# [19] = biological target: Histone deacetylase 2 (Homo sapiens, UniProt Q92769); assay: Inhibition of HDAC2 (unknown origin)
# [20] = test system: NCI-H69; assay: Cytotoxicity against human H69 cells; type: functional, cell-based
# [21] = biological target: Histone deacetylase 5 (Homo sapiens, UniProt Q9UQL6); assay: Inhibition of HDAC5 (unknown origin)
# [22] = Cytotoxicity against human MIHA cells; type: functional, cell-based
# [23] = biological target: Histone deacetylase 1 (Homo sapiens, UniProt Q13547); assay: Inhibition of HDAC1 (unknown origin)
# [24] = biological target: T3, Histone deacetylase 8 (Homo sapiens, UniProt Q9BY41); assay: Inhibition of HDAC8 (unknown origin)
# T3 sequence (Q9BY41 whole entry): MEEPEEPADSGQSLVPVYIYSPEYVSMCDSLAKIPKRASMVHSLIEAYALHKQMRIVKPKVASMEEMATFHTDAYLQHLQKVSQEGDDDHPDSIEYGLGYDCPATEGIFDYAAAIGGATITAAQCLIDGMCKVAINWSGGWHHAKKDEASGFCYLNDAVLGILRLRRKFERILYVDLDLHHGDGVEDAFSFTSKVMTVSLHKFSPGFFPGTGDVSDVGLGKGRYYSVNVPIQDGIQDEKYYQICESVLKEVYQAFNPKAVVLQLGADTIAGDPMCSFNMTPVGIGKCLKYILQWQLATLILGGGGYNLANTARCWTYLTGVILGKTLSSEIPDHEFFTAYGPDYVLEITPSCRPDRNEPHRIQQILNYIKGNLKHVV
# [25] = biological target: T4, Histone deacetylase 11 (Homo sapiens, UniProt Q96DB2); assay: Inhibition of HDAC11 (unknown origin)
# T4 sequence (Q96DB2 whole entry): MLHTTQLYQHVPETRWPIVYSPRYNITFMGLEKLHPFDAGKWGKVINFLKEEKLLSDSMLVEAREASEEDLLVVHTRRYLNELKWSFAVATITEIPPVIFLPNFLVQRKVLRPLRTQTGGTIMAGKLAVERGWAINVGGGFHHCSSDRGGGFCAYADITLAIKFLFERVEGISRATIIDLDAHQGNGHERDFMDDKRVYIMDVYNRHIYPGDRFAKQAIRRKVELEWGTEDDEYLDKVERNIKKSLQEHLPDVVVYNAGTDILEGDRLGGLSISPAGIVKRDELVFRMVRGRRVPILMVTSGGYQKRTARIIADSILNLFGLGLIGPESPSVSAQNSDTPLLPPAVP
# [26] = biological target: Histone deacetylase 9 (Homo sapiens, UniProt Q9UKV0); assay: Inhibition of HDAC9 (unknown origin)
# [27] = test system: MIA PaCa-2; assay: Antitumor activity against human MIAPaCa2 cells xenografted in Ncr mouse assessed as tumor growth inhibition at 80 mg/kg, ip administered daily for 22 days measured on day 25 relative to vehicle-treated control; type: functional, organism-based; parameters: dose 80 mg/kg
# Chain of Histone deacetylase 1 (Q13547 whole entry): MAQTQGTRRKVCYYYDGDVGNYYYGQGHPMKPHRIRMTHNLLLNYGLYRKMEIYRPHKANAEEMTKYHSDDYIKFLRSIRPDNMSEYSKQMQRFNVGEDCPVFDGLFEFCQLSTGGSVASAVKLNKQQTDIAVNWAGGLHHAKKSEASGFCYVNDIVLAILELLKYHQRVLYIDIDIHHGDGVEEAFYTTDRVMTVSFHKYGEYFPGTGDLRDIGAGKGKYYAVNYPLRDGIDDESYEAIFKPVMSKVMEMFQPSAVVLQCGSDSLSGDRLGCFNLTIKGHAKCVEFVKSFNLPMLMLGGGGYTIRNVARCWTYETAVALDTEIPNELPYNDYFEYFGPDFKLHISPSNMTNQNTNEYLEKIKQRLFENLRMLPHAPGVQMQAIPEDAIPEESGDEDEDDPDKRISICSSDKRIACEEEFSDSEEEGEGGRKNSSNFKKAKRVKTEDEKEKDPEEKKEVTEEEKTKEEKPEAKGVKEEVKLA
# Chain of Histone deacetylase 4 (P56524 whole entry): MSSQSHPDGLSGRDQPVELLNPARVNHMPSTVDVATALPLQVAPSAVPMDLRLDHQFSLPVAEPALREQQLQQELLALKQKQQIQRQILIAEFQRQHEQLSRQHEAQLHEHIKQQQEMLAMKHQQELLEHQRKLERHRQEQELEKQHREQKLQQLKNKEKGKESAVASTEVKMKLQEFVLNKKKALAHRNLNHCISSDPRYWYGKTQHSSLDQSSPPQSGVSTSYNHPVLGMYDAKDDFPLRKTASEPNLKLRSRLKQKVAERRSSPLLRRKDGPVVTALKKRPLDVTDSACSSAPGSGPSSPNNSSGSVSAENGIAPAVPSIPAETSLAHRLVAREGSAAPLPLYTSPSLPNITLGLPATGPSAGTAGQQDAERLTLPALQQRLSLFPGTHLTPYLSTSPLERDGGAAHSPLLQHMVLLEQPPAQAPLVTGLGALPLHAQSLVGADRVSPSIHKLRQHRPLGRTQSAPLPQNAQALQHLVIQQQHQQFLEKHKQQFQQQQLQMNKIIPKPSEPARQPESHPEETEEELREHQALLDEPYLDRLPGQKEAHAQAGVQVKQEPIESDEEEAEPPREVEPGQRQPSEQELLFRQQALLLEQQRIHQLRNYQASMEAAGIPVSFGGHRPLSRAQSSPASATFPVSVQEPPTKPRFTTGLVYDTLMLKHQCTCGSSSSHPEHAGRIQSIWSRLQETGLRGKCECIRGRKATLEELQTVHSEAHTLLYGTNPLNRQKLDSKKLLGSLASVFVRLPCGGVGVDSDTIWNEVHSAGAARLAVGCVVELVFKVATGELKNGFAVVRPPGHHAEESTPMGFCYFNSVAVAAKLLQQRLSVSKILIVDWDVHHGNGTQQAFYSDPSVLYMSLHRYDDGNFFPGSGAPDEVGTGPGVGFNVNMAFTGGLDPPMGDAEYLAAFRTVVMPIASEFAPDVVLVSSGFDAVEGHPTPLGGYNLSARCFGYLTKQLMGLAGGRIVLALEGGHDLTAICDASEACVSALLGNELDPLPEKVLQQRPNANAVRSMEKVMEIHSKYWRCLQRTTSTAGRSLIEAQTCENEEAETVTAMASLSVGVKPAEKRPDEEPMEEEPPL
# Chain of Histone deacetylase 5 (Q9UQL6 whole entry): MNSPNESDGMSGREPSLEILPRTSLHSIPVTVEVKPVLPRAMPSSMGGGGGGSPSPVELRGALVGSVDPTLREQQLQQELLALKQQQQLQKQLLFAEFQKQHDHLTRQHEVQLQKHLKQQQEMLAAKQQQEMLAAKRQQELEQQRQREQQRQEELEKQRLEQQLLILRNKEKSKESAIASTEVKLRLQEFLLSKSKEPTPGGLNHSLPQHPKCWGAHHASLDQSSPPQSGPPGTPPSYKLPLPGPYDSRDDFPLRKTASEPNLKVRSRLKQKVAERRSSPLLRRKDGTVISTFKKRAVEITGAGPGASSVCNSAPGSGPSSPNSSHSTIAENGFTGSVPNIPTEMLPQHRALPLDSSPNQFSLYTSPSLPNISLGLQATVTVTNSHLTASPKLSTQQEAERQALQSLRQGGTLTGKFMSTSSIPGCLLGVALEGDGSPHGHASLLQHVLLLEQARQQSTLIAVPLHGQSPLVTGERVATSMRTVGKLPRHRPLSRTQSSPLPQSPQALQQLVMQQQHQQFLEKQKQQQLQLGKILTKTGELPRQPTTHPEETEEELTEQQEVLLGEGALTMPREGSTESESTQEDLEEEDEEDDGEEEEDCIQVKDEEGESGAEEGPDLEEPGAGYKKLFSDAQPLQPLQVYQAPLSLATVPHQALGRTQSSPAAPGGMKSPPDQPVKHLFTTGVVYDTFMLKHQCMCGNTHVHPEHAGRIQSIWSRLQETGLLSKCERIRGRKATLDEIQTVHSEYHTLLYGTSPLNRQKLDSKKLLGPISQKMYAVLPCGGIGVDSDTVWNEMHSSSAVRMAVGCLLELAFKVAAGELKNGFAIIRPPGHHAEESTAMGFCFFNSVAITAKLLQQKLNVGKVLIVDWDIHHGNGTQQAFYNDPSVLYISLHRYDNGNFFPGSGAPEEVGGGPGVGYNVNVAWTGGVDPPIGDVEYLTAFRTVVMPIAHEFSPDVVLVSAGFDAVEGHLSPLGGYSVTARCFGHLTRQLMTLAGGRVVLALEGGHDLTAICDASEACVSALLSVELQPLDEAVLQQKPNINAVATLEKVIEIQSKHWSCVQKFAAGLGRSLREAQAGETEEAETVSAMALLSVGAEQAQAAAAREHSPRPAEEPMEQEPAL
# Chain of Histone deacetylase 9 (Q9UKV0 whole entry): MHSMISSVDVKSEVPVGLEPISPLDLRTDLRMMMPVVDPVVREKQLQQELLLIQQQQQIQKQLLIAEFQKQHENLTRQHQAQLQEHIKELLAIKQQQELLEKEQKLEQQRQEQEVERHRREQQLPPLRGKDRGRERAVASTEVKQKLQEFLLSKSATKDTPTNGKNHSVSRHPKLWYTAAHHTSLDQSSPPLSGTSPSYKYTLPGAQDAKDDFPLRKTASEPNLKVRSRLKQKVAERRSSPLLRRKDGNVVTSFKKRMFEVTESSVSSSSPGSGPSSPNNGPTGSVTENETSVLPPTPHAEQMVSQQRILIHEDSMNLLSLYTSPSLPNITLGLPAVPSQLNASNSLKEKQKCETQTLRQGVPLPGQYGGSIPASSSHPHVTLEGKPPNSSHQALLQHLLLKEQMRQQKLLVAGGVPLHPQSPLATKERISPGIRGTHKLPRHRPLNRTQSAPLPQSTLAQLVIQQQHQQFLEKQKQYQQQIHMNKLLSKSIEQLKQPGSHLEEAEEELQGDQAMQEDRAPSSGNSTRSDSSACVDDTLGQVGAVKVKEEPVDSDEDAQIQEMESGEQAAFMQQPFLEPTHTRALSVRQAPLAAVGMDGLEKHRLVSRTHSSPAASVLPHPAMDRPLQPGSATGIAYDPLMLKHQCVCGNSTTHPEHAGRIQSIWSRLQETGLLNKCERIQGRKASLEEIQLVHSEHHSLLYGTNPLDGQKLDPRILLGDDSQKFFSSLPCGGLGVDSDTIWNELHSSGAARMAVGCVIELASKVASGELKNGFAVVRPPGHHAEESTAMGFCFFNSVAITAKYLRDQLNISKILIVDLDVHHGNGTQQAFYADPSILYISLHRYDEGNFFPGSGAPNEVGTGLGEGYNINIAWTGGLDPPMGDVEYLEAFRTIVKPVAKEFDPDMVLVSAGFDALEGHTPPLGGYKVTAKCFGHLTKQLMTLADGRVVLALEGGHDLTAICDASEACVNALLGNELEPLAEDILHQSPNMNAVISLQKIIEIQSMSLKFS
# Chain of Histone deacetylase 3 (O15379 whole entry): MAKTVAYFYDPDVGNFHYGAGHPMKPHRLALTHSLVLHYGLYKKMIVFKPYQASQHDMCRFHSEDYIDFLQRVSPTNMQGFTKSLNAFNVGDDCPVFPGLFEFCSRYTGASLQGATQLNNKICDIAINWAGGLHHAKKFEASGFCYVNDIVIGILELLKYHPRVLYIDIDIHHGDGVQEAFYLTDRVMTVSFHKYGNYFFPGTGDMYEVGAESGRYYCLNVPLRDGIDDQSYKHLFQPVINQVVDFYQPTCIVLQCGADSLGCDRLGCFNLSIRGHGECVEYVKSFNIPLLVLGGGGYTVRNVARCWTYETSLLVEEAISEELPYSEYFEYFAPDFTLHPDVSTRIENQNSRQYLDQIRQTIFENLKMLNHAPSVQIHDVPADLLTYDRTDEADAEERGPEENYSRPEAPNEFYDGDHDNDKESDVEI
# Chain of Histone deacetylase 2 (Q92769 whole entry): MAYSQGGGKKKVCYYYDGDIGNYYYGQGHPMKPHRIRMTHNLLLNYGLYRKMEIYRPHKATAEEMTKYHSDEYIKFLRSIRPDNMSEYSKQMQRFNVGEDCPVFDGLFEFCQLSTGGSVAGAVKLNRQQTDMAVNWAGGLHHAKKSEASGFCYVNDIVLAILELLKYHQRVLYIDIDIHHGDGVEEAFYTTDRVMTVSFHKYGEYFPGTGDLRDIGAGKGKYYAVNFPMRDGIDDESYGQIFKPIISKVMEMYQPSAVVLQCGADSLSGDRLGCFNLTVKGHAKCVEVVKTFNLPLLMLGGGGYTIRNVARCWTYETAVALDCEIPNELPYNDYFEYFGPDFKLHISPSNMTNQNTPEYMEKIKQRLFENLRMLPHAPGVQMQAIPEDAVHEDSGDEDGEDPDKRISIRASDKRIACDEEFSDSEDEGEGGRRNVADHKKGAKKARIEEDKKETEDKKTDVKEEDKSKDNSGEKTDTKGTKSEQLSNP
smiles,measurement,setting,value
O=C(CCCCCCc1nc2ccc(-c3cncnc3)cc2[nH]1)NO,IC50,[1],2.6 µM
O=C(CCCCCCc1nc2ccc(-c3cccc(F)c3)cc2[nH]1)NO,IC50,[1],1.5 µM
O=C(CCCCCCC(=O)Nc1ccccc1)NO [VORINOSTAT],IC50,[2],2.3 µM
same,IC50,[1],2.3 µM
O=C(CCCCCCc1nc2ccc(Br)cc2[nH]1)NO,IC50,[3],0.61 µM
same,IC50,[4],0.0019 µM
same,IC50,[5],1.9 µM
same,IC50,[6],0.18 µM
same,IC50,[7],0.0064 µM
same,IC50,[8],2 µM
same,Activity,[9],Non-toxic
same,inhibition in vivo at 100 mg/kg,[10],74%
same,IC50,[11],2.4 µM
same,IC50,[12],0.003 µM
same,IC50,[13],0.279 µM
same,IC50,[14],2.2 µM
same,IC50,[15],0.17 µM
same,IC50,[2],0.089 µM
same,IC50,[16],0.98 µM
same,IC50,[17],0.82 µM
same,IC50,[18],0.56 µM
same,IC50,[19],0.0341 µM
same,IC50,[1],0.26 µM
same,IC50,[20],0.15 µM
same,IC50,[21],0.0025 µM
same,IC50,[22],0.23 µM
same,IC50,[23],0.0202 µM
same,IC50,[24],0.282 µM
same,IC50,[25],0.0334 µM
same,IC50,[26],0.0011 µM
Cn1c(CCCCCCC(=O)NO)nc2ccccc21,IC50,[1],3 µM
O=C(CCCCCCc1nc2ccc(Cl)cc2[nH]1)NO,IC50,[1],0.32 µM
O=C(CCCCCCc1nc2ccc(-c3ccccc3F)cc2[nH]1)NO,IC50,[1],7.4 µM
Nc1ccn([C@@H]2O[C@H](CO)[C@@H](O)C2(F)F)c(=O)n1,TGI,[27],Active
O=C(CCCCCCc1nc2ccccc2[nH]1)NO,IC50,[1],2.7 µM
O=C(CCCCCCc1nc2ccncc2[nH]1)NO,IC50,[1],> 20 µM
O=C(CCCCCCc1nc2ccc(-c3ccc(F)cc3)cc2[nH]1)NO,IC50,[1],1.2 µM
CN(C)c1ccc(-c2ccc3nc(CCCCCCC(=O)NO)[nH]c3c2)cc1,IC50,[1],6.6 µM
O=C(CCCCCCc1nc2ccccc2n1C1CCCC1)NO,IC50,[1],4.8 µM
CN(C)c1ccc2nc(CCCCCCC(=O)NO)[nH]c2c1,IC50,[1],1.2 µM
O=C(CCCCCCc1nc2cccc(Cl)c2[nH]1)NO,IC50,[1],10 µM
COc1ccc2nc(CCCCCCC(=O)NO)[nH]c2c1,IC50,[1],11 µM
O=C(CCCCCc1nc2ccccc2[nH]1)NO,IC50,[1],11 µM
O=C(CCCCCCc1nc2ccc(-c3ccccc3)cc2[nH]1)NO,IC50,[1],0.1 µM
O=C(CCCCCCc1nc2ccccc2n1-c1ccccc1)NO,IC50,[1],> 20 µM
COc1ccc(-c2ccc3nc(CCCCCCC(=O)NO)[nH]c3c2)cc1,IC50,[1],3.1 µM
O=C(CCCCCCc1nc2ccccc2n1C1CC1)NO,IC50,[1],9.5 µM
O=C(CCCCCCc1nc2ccc(F)cc2[nH]1)NO,IC50,[1],1.9 µM
